{"source": "ChEMBL document CHEMBL6087397", "about": "“H2S-releasing oridonin derivatives with improved antitumor activity by inhibiting the PI3K/AKT pathway” (Bioorg Med Chem, 2024)", "key": {"MCF7 [1]": {"system": "MCF7", "experiment": "Antiproliferative activity against human MCF7 cells assessed as inhibition of cell proliferation incubated for 48 hrs by CCK-8 assay", "type": "functional, cell-based", "conditions": "MCF7, 48 h"}, "A549": {"system": "A549", "experiment": "Antiproliferative activity against human A549 cells assessed as inhibition of cell proliferation incubated for 48 hrs by CCK-8 assay", "type": "functional, cell-based", "conditions": "A549, 48 h"}, "HepG2": {"system": "HepG2", "experiment": "Antiproliferative activity against human HepG2 cells assessed as inhibition of cell proliferation incubated for 48 hrs by CCK-8 assay", "type": "functional, cell-based", "conditions": "HepG2, 48 h"}, "PANC-1": {"system": "PANC-1", "experiment": "Antiproliferative activity against human PANC-1 cells assessed as inhibition of cell proliferation incubated for 48 hrs by CCK-8 assay", "type": "functional, cell-based", "conditions": "PANC-1, 48 h"}, "MIA PaCa-2 [2]": {"system": "MIA PaCa-2", "experiment": "Antiproliferative activity against human MIA PaCa-2 cells assessed as inhibition of cell proliferation incubated for 48 hrs by CCK-8 assay", "type": "functional, cell-based", "conditions": "MIA PaCa-2, 48 h"}, "MCF7 [3]": {"system": "MCF7", "experiment": "Inhibition of colony formation in human MCF7 cells assessed as reduction in number of colonies at 1.0 to 2.0 uM incubated for […] by crystal violet staining based microscopic analysis", "type": "functional, cell-based", "conditions": "dose 1-2 µM"}, "MIA PaCa-2 [4]": {"system": "MIA PaCa-2", "experiment": "Inhibition of colony formation in human MIA PaCa-2 cells assessed as reduction in number of colonies at 0.5 to 1.0 uM incubated for […] by crystal violet staining based microscopic analysis", "type": "functional, cell-based", "conditions": "dose 0.5-1 µM"}, "MCF7 [5]": {"system": "MCF7", "experiment": "Inhibition of cell migration in human MCF7 cells assessed as wider scratch areas incubated for 48 hrs by scratch assay", "type": "functional, cell-based", "conditions": "dose 0.5-1 µM"}, "MIA PaCa-2 [6]": {"system": "MIA PaCa-2", "experiment": "Inhibition of cell migration in human MIA PaCa-2 cells assessed as wider scratch areas at 0.5 to 1.0 uM incubated for 48 hrs by scratch assay", "type": "functional, cell-based", "conditions": "dose 0.5-1 µM"}, "MCF7 [7]": {"system": "MCF7", "experiment": "Inhibition of cell invasion in human MCF7 cells assessed as decrease in number of invading cells at 0.5 to 1.0 uM incubated for 48 hrs by crystal violet staining based transwell microscopic analysis", "type": "functional", "conditions": "dose 0.5-1 µM"}, "MIA PaCa-2 [8]": {"system": "MIA PaCa-2", "experiment": "Inhibition of cell invasion in human MIA PaCa-2 cells assessed as decrease in number of invading cells at 0.5 to 1.0 uM incubated for 48 hrs by crystal violet staining based transwell microscopic analysis relative to control", "type": "functional", "conditions": "dose 0.5-1 µM"}, "MCF7 [9]": {"system": "MCF7", "experiment": "Induction of cell cycle arrest in human MCF7 cells assessed as increase in accumulation of cells at G2/M phase at 10 uM incubated for 48 hrs by PI staining based flow cytometric analysis (reference value: 6.7%)", "type": "functional"}, "MIA PaCa-2 [10]": {"system": "MIA PaCa-2", "experiment": "Induction of cell cycle arrest in human MIA PaCa-2 cells assessed as increase in accumulation of cells at S phase at 2.5 uM incubated for 48 hrs by PI staining based flow cytometric analysis (reference value: 9.38%)", "type": "functional"}, "MCF7 [11]": {"system": "MCF7", "experiment": "Induction of apoptosis in human MCF7 cells assessed as early apoptotic cells at 10 uM incubated for 48 hrs by Annexin V-FITC/PI staining based flow cytometric analysis (reference value: 20.2%)", "type": "functional"}, "MCF7 [12]": {"system": "MCF7", "experiment": "Induction of apoptosis in human MCF7 cells assessed as late apoptotic cells at 20 uM incubated for 48 hrs by Annexin V-FITC/PI staining based flow cytometric analysis (reference value: 20.2%)", "type": "functional"}, "MCF7 [13]": {"system": "MCF7", "experiment": "Induction of apoptosis in human MCF7 cells assessed as increase in nuclear fragmentation at 2.5 uM incubated for 48 hrs by Hoechst 33342 staining based fluorescence microscopic analysis", "type": "functional, cell-based"}, "MCF7 [14]": {"system": "MCF7", "experiment": "Induction of apoptosis in human MCF7 cells assessed as increase in fluorescence intensity at 2.5 uM incubated for 48 hrs by Hoechst 33342 staining based fluorescence microscopic analysis", "type": "functional, cell-based"}, "MIA PaCa-2 [15]": {"system": "MIA PaCa-2", "experiment": "Induction of apoptosis in human MIA PaCa-2 cells assessed as increase in fluorescence intensity at 2.5 uM incubated for 48 hrs by Hoechst 33342 staining based fluorescence microscopic analysis", "type": "functional, cell-based"}, "MIA PaCa-2 [16]": {"system": "MIA PaCa-2", "experiment": "Induction of apoptosis in human MIA PaCa-2 cells assessed as early apoptotic cells at 10 uM incubated for 48 hrs by Annexin V-FITC/PI staining based flow cytometric analysis (reference value: 7.3%)", "type": "functional"}, "MCF7 [17]": {"system": "MCF7", "experiment": "Induction of mitochondrial dysfunction in human MCF7 cells assessed as decrease in MMP level at 2.5 to 5.0 uM by measuring green fluorescence incubated for 48 hrs by JC-1 staining based flow cytometric analysis", "type": "functional, cell-based", "conditions": "dose 2.5-5 µM"}, "MIA PaCa-2 [18]": {"system": "MIA PaCa-2", "experiment": "Induction of mitochondrial dysfunction in human MIA PaCa-2 cells assessed as decrease in MMP level at 2.5 to 5.0 uM by measuring green fluorescence incubated for 48 hrs by JC-1 staining based flow cytometric analysis", "type": "functional, cell-based", "conditions": "dose 2.5-5 µM"}, "MCF7 [19]": {"system": "MCF7", "experiment": "Induction of mitochondrial dysfunction in human MCF7 cells assessed as decrease in ATP level incubated for 48 hrs by ATP assay kit", "type": "functional, cell-based", "conditions": "dose 2.5-10 µM"}, "MIA PaCa-2 [20]": {"system": "MIA PaCa-2", "experiment": "Induction of mitochondrial dysfunction in human MIA PaCa-2 cells assessed as decrease in ATP level incubated for 48 hrs by ATP assay kit", "type": "functional, cell-based", "conditions": "dose 2.5-10 µM"}, "MCF7 [21]": {"system": "MCF7", "experiment": "Induction of apoptosis in human MCF7 cells assessed as increase in cleaved caspase-3 level at 1.25 to 5.0 uM incubated for 48 hrs by Western blotting analysis", "type": "functional, cell-based", "conditions": "dose 1.25-5 µM"}, "MCF7 [22]": {"system": "MCF7", "experiment": "Induction of mitochondrial apoptosis pathway in human MCF7 cells assessed as downregulation of pro-caspase-9 expression at 1.25 to 5.0 uM incubated for 48 hrs by Western blotting analysis", "type": "functional, cell-based", "conditions": "dose 1.25-5 µM"}, "MIA PaCa-2 [23]": {"system": "MIA PaCa-2", "experiment": "Induction of apoptosis in human MIA PaCa-2 cells assessed as upregulation of Cyt-C expression at 1.25 to 5.0 uM incubated for 48 hrs by Western blotting analysis", "type": "functional, cell-based", "conditions": "dose 1.25-5 µM"}, "MIA PaCa-2 [24]": {"system": "MIA PaCa-2", "experiment": "Induction of apoptosis in human MIA PaCa-2 cells assessed as upregulation of cleaved caspase-3 expression at 1.25 to 5.0 uM incubated for 48 hrs by Western blotting analysis", "type": "functional, cell-based", "conditions": "dose 1.25-5 µM"}, "MIA PaCa-2 [25]": {"system": "MIA PaCa-2", "experiment": "Inhibition of PI3K expression in human MIA PaCa-2 cells at 1.25 to 5.0 uM incubated for 48 hrs by Western blotting analysis", "type": "functional, cell-based", "conditions": "dose 1.25-5 µM"}, "MIA PaCa-2 [26]": {"system": "MIA PaCa-2", "experiment": "Inhibition of AKT expression in human MIA PaCa-2 cells at 1.25 to 5.0 uM incubated for 48 hrs by Western blotting analysis", "type": "functional, cell-based", "conditions": "dose 1.25-5 µM"}, "4T1": {"system": "4T1", "experiment": "Antitumor activity against mouse 4T1 cells xenografted in female BALB/c mouse assessed as reduction in tumor volume at 10 mg/kg, ip administered every 2 days", "type": "functional, organism-based"}, "[27]": {"experiment": "Toxicity in female BALB/c mouse xenografted with mouse 4T1 cells assessed as change in body weight at 10 mg/kg, ip administered every 2 days", "type": "organism-based", "conditions": "in vivo, 48 h"}, "[28]": {"experiment": "Toxicity in female BALB/c mouse xenografted with mouse 4T1 cells assessed as morphological change in heart at 10 mg/kg, ip administered every 2 days by H and E staining based analysis", "type": "organism-based", "conditions": "in vivo, 48 h"}, "[29]": {"experiment": "Toxicity in female BALB/c mouse xenografted with mouse 4T1 cells assessed as morphological change in lung at 10 mg/kg, ip administered every 2 days by H and E staining based analysis", "type": "organism-based", "conditions": "in vivo, 48 h"}, "[30]": {"experiment": "Toxicity in female BALB/c mouse xenografted with mouse 4T1 cells assessed as morphological change in spleen at 10 mg/kg, ip administered every 2 days by H and E staining based analysis", "type": "organism-based", "conditions": "in vivo, 48 h"}, "[31]": {"experiment": "Toxicity in female BALB/c mouse xenografted with mouse 4T1 cells assessed as morphological change in kidney at 10 mg/kg, ip administered every 2 days by H and E staining based analysis", "type": "organism-based", "conditions": "in vivo, 48 h"}}, "note": "Calls of active or inactive are those of the source. No cut-off for these calls is given here.", "data": [{"smiles": "C=C1C(=O)[C@]23[C@H](OC(=O)c4ccc(N=C=S)cc4)[C@H]1CC[C@H]2[C@@]12CO[C@]3(O)[C@@H](O)[C@@H]1C(C)(C)CC[C@@H]2O", "values": [{"measurement": "IC50", "setting": "MCF7 [1]", "result": 3.43, "unit": "µM"}, {"measurement": "IC50", "setting": "A549", "result": 17.8, "unit": "µM"}, {"measurement": "IC50", "setting": "HepG2", "result": 7.48, "unit": "µM"}, {"measurement": "IC50", "setting": "PANC-1", "result": 17.7, "unit": "µM"}, {"measurement": "IC50", "setting": "MIA PaCa-2 [2]", "result": 2140, "unit": "nM"}, {"measurement": "inhibition", "setting": "MCF7 [3]", "result": "Active"}, {"measurement": "inhibition", "setting": "MIA PaCa-2 [4]", "result": "Active"}, {"measurement": "inhibition", "setting": "MCF7 [5]", "result": "Dose-dependent-effect"}, {"measurement": "inhibition", "setting": "MIA PaCa-2 [6]", "result": "Active"}, {"measurement": "inhibition", "setting": "MCF7 [7]", "result": "Active"}, {"measurement": "inhibition (INH)", "setting": "MIA PaCa-2 [8]", "result": "~70", "unit": "%"}, {"measurement": "Activity", "setting": "MCF7 [9]", "result": 14, "unit": "%"}, {"measurement": "Activity", "setting": "MIA PaCa-2 [10]", "result": 36, "unit": "%"}, {"measurement": "Activity", "setting": "MCF7 [11]", "result": 37, "unit": "%"}, {"measurement": "Activity", "setting": "MCF7 [12]", "result": 57, "unit": "%"}, {"measurement": "Activity", "setting": "MCF7 [13]", "result": "Active"}, {"measurement": "Activity", "setting": "MCF7 [14]", "result": "Active"}, {"measurement": "Activity", "setting": "MIA PaCa-2 [15]", "result": "Active"}, {"measurement": "Activity", "setting": "MIA PaCa-2 [16]", "result": 56.8, "unit": "%"}, {"measurement": "Activity", "setting": "MCF7 [17]", "result": "Active"}, {"measurement": "Activity", "setting": "MIA PaCa-2 [18]", "result": "Active"}, {"measurement": "Activity", "setting": "MCF7 [19]", "result": "Dose-dependent-effect"}, {"measurement": "Activity", "setting": "MIA PaCa-2 [20]", "result": "Dose-dependent-effect"}, {"measurement": "Activity", "setting": "MCF7 [21]", "result": "Active"}, {"measurement": "Activity", "setting": "MCF7 [22]", "result": "Active"}, {"measurement": "Activity", "setting": "MIA PaCa-2 [23]", "result": "Active"}, {"measurement": "Activity", "setting": "MIA PaCa-2 [24]", "result": "Active"}, {"measurement": "inhibition", "setting": "MIA PaCa-2 [25]", "result": "Active"}, {"measurement": "inhibition", "setting": "MIA PaCa-2 [26]", "result": "Active"}, {"measurement": "Activity", "setting": "4T1", "result": "Active"}, {"measurement": "Activity", "setting": "[27]", "result": "Non-toxic"}, {"measurement": "Activity", "setting": "[28]", "result": "Non-toxic"}, {"measurement": "Activity", "setting": "[29]", "result": "Non-toxic"}, {"measurement": "Activity", "setting": "[30]", "result": "Non-toxic"}, {"measurement": "Activity", "setting": "[31]", "result": "Non-toxic"}]}]}
